Experimental data as given in publication PMC12396409, “Screening and hit evaluation of a microbial metabolite library against the pathogenic Plasmodium falciparum and Toxoplasma gondii parasites” (International Journal for Parasitology: Drugs and Drug …, 2025).
Read-outs that look alike come from different tables or passages of the source.

Legend:
[1] = system: P. falciparum 3D7 parasites; assay: P. falciparum growth inhibition assay, 1-cycle (72 h treatment), SYBR DNA staining (library screen at 2 μg/mL and dose-response); format: cell-based, Plasmodium falciparum; details: for activity at 2 µg/mL: Plasmodium falciparum
[2] = system: P. falciparum 3D7 parasites; assay: P. falciparum growth inhibition assay, 2-cycle (120 h treatment), delayed-death screen and dose-response; format: cell-based, Plasmodium falciparum; details: for activity at 2 µg/mL: Plasmodium falciparum
[3] = system: T. gondii RH strain (RH-Tub-eYFP) tachyzoites; assay: microbe, parasite or virus in culture; format: cell-based, Toxoplasma gondii; details: 72 h; for percent parasite growth at 2 µg/mL: Toxoplasma gondii
[4] = P. falciparum 3D7, 72 h, parasite screen at 2 μg/mL, % growth, replicate 1
[5] = P. falciparum 3D7, 72 h, parasite screen at 2 μg/mL, % growth, replicate 2
[6] = P. falciparum 3D7, 120 h, parasite screen at 2 μg/mL, % growth, replicate 1
[7] = T. gondii, parasite screen at 2 μg/mL, % growth, replicate 1
[8] = T. gondii, parasite screen at 2 μg/mL, % growth, replicate 2
[9] = library screen at 2 μg/mL, 72 h, % growth, replicate 1
[10] = library screen at 2 μg/mL, 72 h, % growth, replicate 2
[11] = library screen at 2 μg/mL, 120 h, % growth, replicate 1
[12] = library screen at 2 μg/mL, 120 h, % growth, replicate 2
[13] = library screen at 2 μg/mL, % growth, replicate 1
[14] = library screen at 2 μg/mL, % growth, replicate 2
[15] = P. falciparum, 72 h, screen at 2 μg/mL, replicate 1
[16] = P. falciparum, 72 h, screen at 2 μg/mL, replicate 2
[17] = P. falciparum, 120 h, screen at 2 μg/mL, replicate 1
[18] = P. falciparum, 120 h, screen at 2 μg/mL, replicate 2
[19] = T. gondii, screen at 2 μg/mL, replicate 1
[20] = T. gondii, screen at 2 μg/mL, replicate 2

CO[C@@]12[C@H](COC(N)=O)C3=C(C(=O)C(C)=C(N)C3=O)N1C[C@@H]1N[C@@H]12 [BIA-M1183] was tested, and the Pf_72h_%Growth_Rep1 [1, 4] was 82.66%, the Pf_72h_%Growth_Rep2 [1, 5] was 112.82% and the Pf_120h_%Growth_Rep1 [2, 6] was 92.29%. For the same compound, the Pf_120h_%Growth_Rep2 ([2]; P. falciparum 3D7, 120 h, parasite screen at 2 μg/mL, % growth, replicate 2) was 100.91%, the Tg_72h_%Growth_Rep1 [3, 7] was 127.95% and the Tg_72h_%Growth_Rep2 [3, 8] was 82.68%.

C=C1NC(=O)c2nc(oc2C)C(=C)NC(=O)[C@H](C(C)(C)O)NC(=O)C(=C)NC(=O)c2nc(oc2C)/C(=C/C)NC(=O)[C@H]([C@@H](C)O)NC(=O)c2csc(n2)-c2ccc(C(N)=O)nc2-c2coc(n2)C(=C)NC1=O [Berninamycin D] showed a Pf_72h_%Growth_Rep1 [1, 9] of 102.21%, a Pf_72h_%Growth_Rep2 [1, 10] of 89.93% and a Pf_120h_%Growth_Rep1 [2, 11] of 147.66%. It also gave a Pf_120h_%Growth_Rep2 [2, 12] of 98.89%, a Tg_72h_%Growth_Rep1 [3, 13] of 81.74% and a Tg_72h_%Growth_Rep2 [3, 14] of 94.54%.

With CN1CCC2(c3cccc4c3NC3N(C)CCC43C34CCN(C)C3Nc3ccccc34)c3ccccc3NC12 (stereo not drawn) [BIA-H1948] the Pf_72h_%Growth_Rep1 ([1]; P. falciparum 3D7, 72 h, library screen at 2 μg/mL, % growth, replicate 1) was 8.04%, the Pf_72h_%Growth_Rep2 ([1]; P. falciparum 3D7, 72 h, library screen at 2 μg/mL, % growth, replicate 2) was 0.51% and the Pf_120h_%Growth_Rep1 ([2]; P. falciparum 3D7, 120 h, library screen at 2 μg/mL, % growth, replicate 1) was 10.24%. It also gave a Pf_120h_%Growth_Rep2 ([2]; P. falciparum 3D7, 120 h, library screen at 2 μg/mL, % growth, replicate 2) of -13.19%, a Tg_72h_%Growth_Rep1 ([3]; T. gondii RH, library screen at 2 μg/mL, % growth, replicate 1) of 27.32% and a Tg_72h_%Growth_Rep2 ([3]; T. gondii RH, library screen at 2 μg/mL, % growth, replicate 2) of 71.35%.

With CC1=CC2C(O)CCCC2C(C)(C(O)=C2C(=O)CNC2=O)C1CCC(C)C(O)/C(C)=C/CC(O)/C=C/C(C)C(O)/C=C/CC(O)/C=C/CC(O)CC1CCCN1C(=N)N (stereo not drawn) [TPU-0037C] the Pf_72h_%Growth_Rep1 [1, 15] was 76.69%, the Pf_72h_%Growth_Rep2 [1, 16] was 109.21% and the Pf_120h_%Growth_Rep1 [2, 17] was 83.44%. The Pf_120h_%Growth_Rep2 [2, 18] was 78.76%, the Tg_72h_%Growth_Rep1 [3, 19] was 129.91% and the Tg_72h_%Growth_Rep2 [3, 20] was 76.44%.

Compound Cc1c2c(c(O)c3c(O)cccc13)C(=O)[C@]1(O)C(O)=C(C(N)=O)C(=O)[C@H](N(C)C)[C@@H]1C2.Cl [Epianhydrotetracycline hydrochloride] has a Pf_72h_%Growth_Rep1 [1, 9] of 83.48%, a Pf_72h_%Growth_Rep2 [1, 10] of 108.73% and a Pf_120h_%Growth_Rep1 [2, 11] of 77.42%. For the same compound, the Pf_120h_%Growth_Rep2 [2, 12] was 113.33%, the Tg_72h_%Growth_Rep1 [3, 13] was 166.02% and the Tg_72h_%Growth_Rep2 [3, 14] was 109.09%.

Compound CO[C@H]1C[C@@H]2CC[C@@H](C)[C@@](O)(O2)C(=O)C(=O)N2CCCC[C@H]2C(=O)O[C@H]([C@H](C)C[C@@H]2CC[C@@H](OC(=O)C(C)(CO)CO)[C@H](OC)C2)CC(=O)[C@H](C)/C=C(\C)[C@@H](O)[C@@H](OC)C(=O)[C@H](C)C[C@H](C)/C=C/C=C/C=C/1C [Temsirolimus] has an activity at 2 µg/mL ([1]; 3D7, P. falciparum, 72 h, screen at 2 μg/mL, replicate 1, read-out: Pf_72h_%Growth_Rep1) of 59.1%, an activity at 2 µg/mL ([1]; 3D7, P. falciparum, 72 h, screen at 2 μg/mL, replicate 2, read-out: Pf_72h_%Growth_Rep2) of 47.4% and an activity at 2 µg/mL ([2]; 3D7, P. falciparum, 120 h, screen at 2 μg/mL, replicate 1, read-out: Pf_120h_%Growth_Rep1) of 61.2%. It also gave an activity at 2 µg/mL ([2]; 3D7, P. falciparum, 120 h, screen at 2 μg/mL, replicate 2, read-out: Pf_120h_%Growth_Rep2) of 46.5%, a percent parasite growth at 2 µg/mL ([3]; T. gondii, screen at 2 μg/mL, replicate 1, read-out: Tg_72h_%Growth_Rep1) of 97% and a percent parasite growth at 2 µg/mL ([3]; T. gondii, screen at 2 μg/mL, replicate 2, read-out: Tg_72h_%Growth_Rep2) of 76.6%.

For C[C@@H]1CCCCCCCCC[C@H](OC(=O)CCC(=O)O)C(=O)/C=C/C(=O)O1 [A 26771B], the Pf_72h_%Growth_Rep1 [1, 9] was 82.59%, the Pf_72h_%Growth_Rep2 [1, 10] was 86.99% and the Pf_120h_%Growth_Rep1 [2, 11] was 86.96%. For the same compound, the Pf_120h_%Growth_Rep2 [2, 12] was 89.23%, the Tg_72h_%Growth_Rep1 [3, 13] was 90.42% and the Tg_72h_%Growth_Rep2 [3, 14] was 102.55%.

COc1ccc2[nH]c3c(C)c4ccncc4c(C)c3c2c1 [BIA-M1952] gave a Pf_72h_%Growth_Rep1 [1, 4] of 9.89%, a Pf_72h_%Growth_Rep2 [1, 5] of -0.96% and a Pf_120h_%Growth_Rep2 [2] of -1.49%. For the same compound, the Pf_120h_%Growth_Rep1 [2, 6] was 10.32%, the Tg_72h_%Growth_Rep1 [3, 7] was 3.28% and the Tg_72h_%Growth_Rep2 [3, 8] was 1.49%.

Compound COc1cccc2c1C(=O)c1c(O)c3c(c(O)c1C2=O)C[C@@](O)(C(=O)CO)C[C@@H]3O[C@H]1C[C@H](N)[C@H](O)[C@H](C)O1 [Doxorubicin] has an activity at 2 µg/mL ([1]; 3D7, 72 h, library screen at 2 μg/mL, 72 h, % growth, replicate 1, read-out: Pf_72h_%Growth_Rep1) of 51.3%, an activity at 2 µg/mL ([1]; 3D7, 72 h, library screen at 2 μg/mL, 72 h, % growth, replicate 2, read-out: Pf_72h_%Growth_Rep2) of 57.9% and an activity at 2 µg/mL ([2]; 3D7, 120 h, library screen at 2 μg/mL, 120 h, % growth, replicate 1, read-out: Pf_120h_%Growth_Rep1) of 15.8%. For the same compound, the activity at 2 µg/mL ([2]; 3D7, 120 h, library screen at 2 μg/mL, 120 h, % growth, replicate 2, read-out: Pf_120h_%Growth_Rep2) was 35.7%, the percent parasite growth at 2 µg/mL ([3]; library screen at 2 μg/mL, % growth, replicate 1, read-out: Tg_72h_%Growth_Rep1) was 214% and the percent parasite growth at 2 µg/mL ([3]; library screen at 2 μg/mL, % growth, replicate 2, read-out: Tg_72h_%Growth_Rep2) was 123%.

For CCCCCCCCCC[C@@H](O)C[C@]1(O)O[C@H](CC(O)C(O)C(O)C(O)C(O)CC(O)CC(O)CC(O)CC(O)C(C)C(O)C(C)C(O)CC(O)C(C)C(O)C(O)C[C@H](C)C[C@H](C)/C=C(C)/C(O)=C2\C(=O)CN(C)C2=O)[C@@H](O)[C@H](O)[C@@H]1O (stereo partly drawn) [Blasticidin A], the Pf_72h_%Growth_Rep1 [1, 15] was 84.79%, the Pf_72h_%Growth_Rep2 [1, 16] was 87.65% and the Pf_120h_%Growth_Rep1 [2, 17] was 135.50%. The Pf_120h_%Growth_Rep2 [2, 18] was 87.28%, the Tg_72h_%Growth_Rep1 [3, 19] was 83.39% and the Tg_72h_%Growth_Rep2 [3, 20] was 93.60%.
